According to US10239849B2 (Merck Sharp & Dohme Corp., priority 2015, dated 2019):

Assays:
[1] = biological target: T1, glutathione-S-transferase (GST) tagged LXRbeta LBD (ligand binding domain) (Homo sapiens, UniProt P55055); assay: LanthaScreen TR-FRET Liver X Receptor Coactivator Assay, LXR beta-LBD; assay type: biochemical; details: for Emax: efficacy in relation to reference dual agonist T1317, read-out: LXR beta activity at max dose (%) (Emax); for EC50: potency (Inflection Point) of co-activator recruitment, TR-FRET, read-out: LXR beta IP
T1 construct: purchased Invitrogen pv4658.pps
T1 sequence (P55055 222-460 limits assumed): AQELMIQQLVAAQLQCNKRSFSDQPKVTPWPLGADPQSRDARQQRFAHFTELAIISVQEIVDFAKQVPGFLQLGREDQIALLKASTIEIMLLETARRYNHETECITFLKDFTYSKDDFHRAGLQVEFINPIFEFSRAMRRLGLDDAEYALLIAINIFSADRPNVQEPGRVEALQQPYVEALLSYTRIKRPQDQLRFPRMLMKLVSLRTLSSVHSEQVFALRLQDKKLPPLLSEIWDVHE
Procedure, shortened: (§1)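 TR-FRET coactivator recruitment read-out: compounds first received either LBD, followed by a mix of terbium-labelled anti-GST antibody and fluorescein coactivator peptide. Signal measured by time-resolved FRET once plates had incubated at room temperature.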

[2] = biological target: T2, glutathione-S-transferase (GST) tagged LXRalpha LBD (ligand binding domain) (Homo sapiens, UniProt Q13133); assay: LanthaScreen TR-FRET Liver X Receptor Coactivator Assay, LXR alpha-LBD; assay type: biochemical; details: for Emax: efficacy in relation to reference dual agonist T1317, read-out: LXR alpha activity at max dose (%) (Emax); for EC50: read-out: LXR alpha IP
T2 construct: purchased Invitrogen pv4655
T2 sequence (Q13133 209-447 limits assumed): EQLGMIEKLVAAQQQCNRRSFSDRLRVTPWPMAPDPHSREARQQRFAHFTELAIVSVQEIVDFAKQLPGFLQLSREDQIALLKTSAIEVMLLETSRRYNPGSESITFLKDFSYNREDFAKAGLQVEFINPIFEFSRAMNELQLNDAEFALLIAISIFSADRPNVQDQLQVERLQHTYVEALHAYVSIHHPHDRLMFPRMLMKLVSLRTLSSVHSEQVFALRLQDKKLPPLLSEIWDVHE
Procedure, shortened: as §1

[3] = potency (Inflection Point) of co-activator recruitment, TR-FRET

| Structure (SMILES) | Emax [1] | EC50 [1] | Emax [2] | EC50 [2, 3] | LXR alpha IP (nM) [2, 3] |
| --- | --- | --- | --- | --- | --- |
| CN(C)C(=O)c1ccc(-c2cnc(N3CCN(C(=O)OC(C)(C)C)CC3)c(CO)c2)cc1Cl [Example 9-3, tert-butyl 4-{5-[3-chloro-4-(dimethylcarbamoyl)phenyl]-3-(hydroxymethyl)pyridin-2-yl}piperazine-1-carboxylate] | 57% | 730 nM | 34% | 30100 nM |  |
| CC(C)(C)OC(=O)N1CCN(c2ncc(-c3ccc(C(=O)N(CCCO)C4CC4)c(Cl)c3)cc2C#N)CC1 [Example 5-20, tert-butyl 4-(5-{3-chloro-4-[cyclopropyl(3-hydroxypropyl)carbamoyl]phenyl}-3-cyanopyridin-2-yl)piperazine-1-carboxylate] | 55% | 565 nM | 31% | 4070 nM |  |
| CON(C)C(=O)c1ccc(-c2cnc(N3CCN(C(=O)OC(C)(C)C)CC3)c(C#N)c2)cc1Cl [Example 5-7, tert-butyl 4-(5-{3-chloro-4-[methoxy(methyl)carbamoyl]phenyl}-3-cyanopyridin-2-yl)piperazine-1-carboxylate] | 69% | 82 nM | 39% | 2660 nM |  |
| Cc1nc(CCN(C)C(=O)c2ccc(-c3cnc(N4CCN(C(=O)OC(C)(C)C)CC4)c(C#N)c3)cc2Cl)no1 [Example 5-28, tert-butyl 4-[5-(3-chloro-4-{methyl[2-(5-methyl-1,2,4-oxadiazol-3-yl)ethyl]carbamoyl}phenyl)-3-cyanopyridin-2-yl]piperazine-1-carboxylate] | 84% | 164 nM | 71% | 3710 nM |  |
| CN(CCc1ccncc1)C(=O)c1ccc(-c2cnc(N3CCN(C(=O)OC(C)(C)C)CC3)c(C#N)c2)cc1Cl [Example 5-27, tert-butyl 4-(5-{3-chloro-4-[methyl(2-pyridin-4-ylethyl)carbamoyl]phenyl}-3-cyanopyridin-2-yl)piperazine-1-carboxylate] | 76% | 705 nM | 17% |  | No IP |

Now from value to compound:

| Emax [1] | EC50 [1] | Emax [2] | EC50 [2, 3] | LXR alpha IP (nM) [2, 3] | Structure (SMILES) |
| --- | --- | --- | --- | --- | --- |
| 62% | 217 nM | 42% | 19800 nM |  | CN(C)C(=O)c1ccc(-c2cnc(N3CCN(C(=O)OCc4cncs4)CC3)c(C#N)c2)cc1Cl [Example 3-3, 1,3-thiazol-5-ylmethyl 4-{5-[3-chloro-4-(dimethylcarbamoyl)phenyl]-3-cyanopyridin-2-yl}piperazine-1-carboxylate] |
| 74% | 57 nM | 26% | 4830 nM |  | CN(C)C(=O)c1ccc(-c2cnc(N3CCN(C(=O)OCc4ccccc4)CC3)c(C#N)c2)cc1Cl [Example 3-14, benzyl 4-{5-[3-chloro-4-(dimethylcarbamoyl)phenyl]-3-cyanopyridin-2-yl}piperazine-1-carboxylate] |
| 70% | 75 nM | 62% | 54100 nM |  | CO[C@@](C(=O)N1CCN(c2ncc(-c3ccc(C(=O)N(C)C)c(Cl)c3)cc2C#N)CC1)(c1ccccc1)C(F)(F)F [Example 2-35, 2-chloro-4-(5-cyano-6-{4-[(2R)-3,3,3-trifluoro-2-methoxy-2-phenylpropanoyl]piperazin-1-yl}pyridin-3-yl)-N,N-dimethylbenzamide] |
| 126% | 151 nM | 62% | 1670 nM |  | CN(C)C(=O)c1ccc(-c2cnc(N3CCN(S(=O)(=O)c4c(Cl)cccc4C(F)(F)F)CC3)c(C#N)c2)cc1Cl [Example 1-18, 2-chloro-4-[6-(4-{[2-chloro-6-(trifluoromethyl)phenyl]sulfonyl}piperazin-1-yl)-5-cyanopyridin-3-yl]-N,N-dimethylbenzamide] |
| 73% | 3 nM | 53% | 186 nM |  | CN(C)C(=O)c1c(Cl)cc(-c2cnc(N3CCN(C(=O)[C@](O)(c4ccccc4)C(F)(F)F)CC3)c(C#N)c2)cc1Cl [Example 7-1, 2,6-dichloro-4-(5-cyano-6-{4-[(2R)-3,3,3-trifluoro-2-hydroxy-2-phenylpropanoyl]piperazin-1-yl}pyridin-3-yl)-N,N-dimethylbenzamide] |
